From PubChem BioAssay (NCI)
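Interpolation was linear, between the two tested concentrations surrounding the appropriate level; five concentrations were tested over 48 hours in 96-well plates. GI50 = concentration required for 50% inhibition of growth. At the TGI there is no net growth.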

Experiments:
Experiment in all cases: NCI tumour cell line growth inhibition, 48 h
NCI-H23 lung = system: NCI-H23 lung
MDA-MB-468 breast = system: MDA-MB-468 breast
HOP-92 NSCLC = system: HOP-92 NSCLC
K-562 leukemia = system: K-562 leukemia
IGROV1 ovarian = system: IGROV1 ovarian
SN12C renal = system: SN12C renal
OVCAR-3 ovarian = system: OVCAR-3 ovarian
NCI-H460 lung = system: NCI-H460 lung
KM12 colon = system: KM12 colon
HCC-2998 colon = system: HCC-2998 colon
TK-10 renal = system: TK-10 renal
A498 renal = system: A498 renal
CCRF-CEM leukemia = system: CCRF-CEM leukemia
UACC-62 melanoma = system: UACC-62 melanoma
UACC-257 melanoma = system: UACC-257 melanoma
SK-MEL-5 melanoma = system: SK-MEL-5 melanoma
BT-549 breast = system: BT-549 breast
CAKI-1 renal = system: CAKI-1 renal
ACHN renal = system: ACHN renal
HS 578T breast = system: HS 578T breast
T-47D breast = system: T-47D breast
SW-620 colon = system: SW-620 colon
NCI/ADR-RES ovarian = system: NCI/ADR-RES ovarian
SF-295 CNS = system: SF-295 CNS
OVCAR-8 ovarian = system: OVCAR-8 ovarian
PC-3 prostate = system: PC-3 prostate
SF-539 CNS = system: SF-539 CNS
RXF 393 renal = system: RXF 393 renal
A549 NSCLC = system: A549 NSCLC
SNB-19 CNS = system: SNB-19 CNS
HCT-116 colon = system: HCT-116 colon
SK-MEL-28 melanoma = system: SK-MEL-28 melanoma
EKVX NSCLC = system: EKVX NSCLC
U251 CNS = system: U251 CNS
LOX IMVI melanoma = system: LOX IMVI melanoma
MCF7 breast = system: MCF7 breast
SR leukemia = system: SR leukemia
MDA-MB-435 = system: MDA-MB-435
HCT-15 colon = system: HCT-15 colon
SF-268 CNS = system: SF-268 CNS
SK-OV-3 ovarian = system: SK-OV-3 ovarian
RPMI-8226 leukemia = system: RPMI-8226 leukemia
MALME-3M melanoma = system: MALME-3M melanoma
DU-145 prostate = system: DU-145 prostate
NCI-H522 lung = system: NCI-H522 lung
M14 melanoma = system: M14 melanoma
OVCAR-5 ovarian = system: OVCAR-5 ovarian
NCI-H226 lung = system: NCI-H226 lung
COLO 205 colon = system: COLO 205 colon
786-0 renal = system: 786-0 renal
HL-60(TB) leukemia = system: HL-60(TB) leukemia
OVCAR-4 ovarian = system: OVCAR-4 ovarian
HOP-62 NSCLC = system: HOP-62 NSCLC
HT29 colon = system: HT29 colon
MOLT-4 leukemia = system: MOLT-4 leukemia

Molecule `COc1c(B(O)O)cc(F)cc1-c1nc2c(F)cc3[nH]ncc3c2c2c1CCCC2` has a GI50 (NCI-H23 lung) of 7.03 µM, a TGI (NCI-H23 lung) of 31.3 µM and a GI50 (MDA-MB-468 breast) of 11.7 µM. The TGI (MDA-MB-468 breast) was 39.9 µM, the GI50 (HOP-92 NSCLC) was 0.0199 µM and the TGI (HOP-92 NSCLC) was 86.5 µM. For the same molecule, the GI50 (K-562 leukemia) was 19.1 µM, the TGI (K-562 leukemia) was > 100 µM and the GI50 (IGROV1 ovarian) was 7.75 µM. It also gave a TGI (IGROV1 ovarian) of 45.9 µM, a GI50 (SN12C renal) of 2.9 µM and a TGI (SN12C renal) of 62.2 µM. It also gave a GI50 (OVCAR-3 ovarian) of 15.5 µM, a TGI (OVCAR-3 ovarian) of 72.6 µM and a GI50 (NCI-H460 lung) of 4.1 µM. For the same molecule, the TGI (NCI-H460 lung) was 28.9 µM, the GI50 (KM12 colon) was 4.47 µM and the TGI (KM12 colon) was 31.6 µM. For the same molecule, the GI50 (HCC-2998 colon) was 11.8 µM, the TGI (HCC-2998 colon) was 40.1 µM and the GI50 (TK-10 renal) was 0.275 µM. The TGI (TK-10 renal) was > 100 µM, the GI50 (A498 renal) was 12.8 µM and the TGI (A498 renal) was 46.5 µM. For the same molecule, the GI50 (CCRF-CEM leukemia) was 3.07 µM, the TGI (CCRF-CEM leukemia) was 80.3 µM and the GI50 (UACC-62 melanoma) was 4.09 µM. The TGI (UACC-62 melanoma) was 17.1 µM, the GI50 (UACC-257 melanoma) was 14.6 µM and the TGI (UACC-257 melanoma) was 62.8 µM. For the same molecule, the GI50 (SK-MEL-5 melanoma) was 14.4 µM, the TGI (SK-MEL-5 melanoma) was 33.2 µM and the GI50 (BT-549 breast) was 0.0845 µM. For the same molecule, the TGI (BT-549 breast) was 6.85 µM, the GI50 (CAKI-1 renal) was 0.158 µM and the TGI (CAKI-1 renal) was 1.58 µM. For the same molecule, the GI50 (ACHN renal) was 1.38 µM, the TGI (ACHN renal) was 42.4 µM and the GI50 (HS 578T breast) was 0.293 µM. The TGI (HS 578T breast) was 63.9 µM, the GI50 (T-47D breast) was 12.5 µM and the TGI (T-47D breast) was 61.9 µM. For the same molecule, the GI50 (SW-620 colon) was 4.15 µM, the TGI (SW-620 colon) was > 100 µM and the GI50 (NCI/ADR-RES ovarian) was 8.18 µM. The TGI (NCI/ADR-RES ovarian) was > 100 µM, the GI50 (SF-295 CNS) was 10.7 µM and the TGI (SF-295 CNS) was 40.1 µM. The GI50 (OVCAR-8 ovarian) was 4.82 µM, the TGI (OVCAR-8 ovarian) was > 100 µM and the GI50 (PC-3 prostate) was 4.9 µM. For the same molecule, the TGI (PC-3 prostate) was > 100 µM, the GI50 (SF-539 CNS) was 0.596 µM and the TGI (SF-539 CNS) was 12.7 µM. It also gave a GI50 (RXF 393 renal) of 0.0887 µM, a TGI (RXF 393 renal) of 1.9 µM and a GI50 (A549 NSCLC) of 3.53 µM. The TGI (A549 NSCLC) was 86.5 µM, the GI50 (SNB-19 CNS) was 3.46 µM and the TGI (SNB-19 CNS) was 66.4 µM. It also gave a GI50 (HCT-116 colon) of 2.1 µM, a TGI (HCT-116 colon) of 36.7 µM and a GI50 (SK-MEL-28 melanoma) of 13.1 µM. The TGI (SK-MEL-28 melanoma) was 38.4 µM, the GI50 (EKVX NSCLC) was 5.04 µM and the TGI (EKVX NSCLC) was 63.4 µM. The GI50 (U251 CNS) was 5.34 µM, the TGI (U251 CNS) was > 100 µM and the GI50 (LOX IMVI melanoma) was 2.43 µM. For the same molecule, the TGI (LOX IMVI melanoma) was 16.5 µM, the GI50 (MCF7 breast) was 3.83 µM and the TGI (MCF7 breast) was 23.1 µM. It also gave a GI50 (SR leukemia) of 1.4 µM, a TGI (SR leukemia) of 11.4 µM and a GI50 (MDA-MB-435) of 13.8 µM. It also gave a TGI (MDA-MB-435) of 34.2 µM, a GI50 (HCT-15 colon) of 4.45 µM and a TGI (HCT-15 colon) of 44.5 µM. For the same molecule, the GI50 (SF-268 CNS) was 3.05 µM, the TGI (SF-268 CNS) was 81.1 µM and the GI50 (SK-OV-3 ovarian) was 4.1 µM. The TGI (SK-OV-3 ovarian) was 77.2 µM, the GI50 (RPMI-8226 leukemia) was 2.14 µM and the TGI (RPMI-8226 leukemia) was 19.6 µM. The GI50 (MALME-3M melanoma) was 14.8 µM, the TGI (MALME-3M melanoma) was 34.2 µM and the GI50 (DU-145 prostate) was 6.53 µM. The TGI (DU-145 prostate) was 56.4 µM, the GI50 (NCI-H522 lung) was 3.66 µM and the TGI (NCI-H522 lung) was 43.6 µM. For the same molecule, the GI50 (M14 melanoma) was 16.4 µM, the TGI (M14 melanoma) was 35.4 µM and the GI50 (OVCAR-5 ovarian) was 5.77 µM. For the same molecule, the TGI (OVCAR-5 ovarian) was 66 µM, the GI50 (NCI-H226 lung) was 3.3 µM and the TGI (NCI-H226 lung) was 72.8 µM. The GI50 (COLO 205 colon) was 4.85 µM, the TGI (COLO 205 colon) was 19.3 µM and the GI50 (786-0 renal) was 2.02 µM. The TGI (786-0 renal) was 18.7 µM, the GI50 (HL-60(TB) leukemia) was 2.42 µM and the TGI (HL-60(TB) leukemia) was 10.9 µM. For the same molecule, the GI50 (OVCAR-4 ovarian) was 14.9 µM, the TGI (OVCAR-4 ovarian) was 59.4 µM and the GI50 (HOP-62 NSCLC) was 2.95 µM. For the same molecule, the TGI (HOP-62 NSCLC) was 54 µM, the GI50 (HT29 colon) was 14.6 µM and the TGI (HT29 colon) was > 100 µM. It also gave a GI50 (MOLT-4 leukemia) of 2.75 µM and a TGI (MOLT-4 leukemia) of 30.9 µM.
